Laboratory results reported in ChEMBL document CHEMBL5120795, “Small-Molecule Inhibitors of Tankyrases as Prospective Therapeutics for Cancer” (J Med Chem, 2022).
Converted amounts (≈) assume the structure as drawn.

Columns and labels:
[1] = Oral bioavailability in mouse relative to control; format: ADME, organism-based; conditions: in vivo
[2] = target: T1, Poly [ADP-ribose] polymerase 1 (Homo sapiens, UniProt P09874); assay: Inhibition of PARP1 (unknown origin)
[3] = target: T2, Poly [ADP-ribose] polymerase 2 (Homo sapiens, UniProt Q9UGN5); assay: Inhibition of PAPR2 (unknown origin)
[4] = Disruption of ARC5 domain of TNKS1 (unknown origin)/USP25 (unknown origin) protein interaction assessed as inhibition constant; design: species or system Homo sapiens
[5] = Stability in mouse liver microsomes assessed as compound remaining measured after 30 mins relative to control; format: ADME, Microsome; conditions: read-out: Stability
[6] = physchem; conditions: aqueous, pH 7.4
[7] = target: T3, Poly [ADP-ribose] polymerase tankyrase-2 (Homo sapiens, UniProt Q9H2K2); assay: Binding affinity to ARC4 domain at TNKS2 (unknown origin) assessed as dissociation constant
T3 sequence (Q9H2K2 whole entry): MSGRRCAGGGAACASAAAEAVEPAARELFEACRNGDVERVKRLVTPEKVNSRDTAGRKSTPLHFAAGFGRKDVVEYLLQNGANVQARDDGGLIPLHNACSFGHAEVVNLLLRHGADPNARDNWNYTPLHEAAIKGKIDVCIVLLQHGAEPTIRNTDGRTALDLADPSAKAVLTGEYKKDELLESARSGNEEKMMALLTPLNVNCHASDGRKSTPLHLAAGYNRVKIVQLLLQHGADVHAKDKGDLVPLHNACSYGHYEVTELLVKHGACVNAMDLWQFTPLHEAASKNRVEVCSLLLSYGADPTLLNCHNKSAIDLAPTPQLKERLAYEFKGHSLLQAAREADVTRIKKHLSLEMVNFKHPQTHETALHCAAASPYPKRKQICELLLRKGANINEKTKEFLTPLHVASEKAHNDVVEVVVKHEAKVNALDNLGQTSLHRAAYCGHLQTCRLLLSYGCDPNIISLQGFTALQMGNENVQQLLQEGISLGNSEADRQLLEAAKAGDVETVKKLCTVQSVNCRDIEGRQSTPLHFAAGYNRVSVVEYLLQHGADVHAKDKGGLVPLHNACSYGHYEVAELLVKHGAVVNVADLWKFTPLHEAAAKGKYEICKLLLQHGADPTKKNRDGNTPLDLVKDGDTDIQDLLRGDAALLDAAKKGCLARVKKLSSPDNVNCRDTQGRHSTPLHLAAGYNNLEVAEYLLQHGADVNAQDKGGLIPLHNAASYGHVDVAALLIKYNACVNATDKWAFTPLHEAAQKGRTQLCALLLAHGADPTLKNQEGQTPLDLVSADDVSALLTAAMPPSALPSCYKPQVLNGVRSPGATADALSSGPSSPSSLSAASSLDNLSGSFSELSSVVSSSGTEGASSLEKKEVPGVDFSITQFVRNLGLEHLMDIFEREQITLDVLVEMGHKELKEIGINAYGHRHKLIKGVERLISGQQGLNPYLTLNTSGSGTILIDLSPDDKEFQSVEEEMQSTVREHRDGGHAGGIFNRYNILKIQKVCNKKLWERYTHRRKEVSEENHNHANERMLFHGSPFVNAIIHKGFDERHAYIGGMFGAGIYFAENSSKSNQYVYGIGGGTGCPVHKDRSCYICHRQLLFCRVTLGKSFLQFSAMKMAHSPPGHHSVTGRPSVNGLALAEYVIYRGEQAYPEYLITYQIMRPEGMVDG

[8] = Toxicity in mouse xenografted with COLO 320DM cells assessed as reduction in body weight at 60 mg/kg, po daily relative to control; format: organism-based; design: scale not given: the % may be the effect or the level left; conditions: in vivo
[9] = Toxicity in mouse xenografted with COLO 320DM cells assessed as reduction in body weight at 30 mg/kg, ip daily relative to control; format: organism-based; design: scale not given: the % may be the effect or the level left; conditions: in vivo
[10] = target: T4, Poly [ADP-ribose] polymerase tankyrase-1 (Homo sapiens, UniProt O95271); assay: Inhibition of TNKS1 (unknown origin)
T4 sequence (O95271 whole entry): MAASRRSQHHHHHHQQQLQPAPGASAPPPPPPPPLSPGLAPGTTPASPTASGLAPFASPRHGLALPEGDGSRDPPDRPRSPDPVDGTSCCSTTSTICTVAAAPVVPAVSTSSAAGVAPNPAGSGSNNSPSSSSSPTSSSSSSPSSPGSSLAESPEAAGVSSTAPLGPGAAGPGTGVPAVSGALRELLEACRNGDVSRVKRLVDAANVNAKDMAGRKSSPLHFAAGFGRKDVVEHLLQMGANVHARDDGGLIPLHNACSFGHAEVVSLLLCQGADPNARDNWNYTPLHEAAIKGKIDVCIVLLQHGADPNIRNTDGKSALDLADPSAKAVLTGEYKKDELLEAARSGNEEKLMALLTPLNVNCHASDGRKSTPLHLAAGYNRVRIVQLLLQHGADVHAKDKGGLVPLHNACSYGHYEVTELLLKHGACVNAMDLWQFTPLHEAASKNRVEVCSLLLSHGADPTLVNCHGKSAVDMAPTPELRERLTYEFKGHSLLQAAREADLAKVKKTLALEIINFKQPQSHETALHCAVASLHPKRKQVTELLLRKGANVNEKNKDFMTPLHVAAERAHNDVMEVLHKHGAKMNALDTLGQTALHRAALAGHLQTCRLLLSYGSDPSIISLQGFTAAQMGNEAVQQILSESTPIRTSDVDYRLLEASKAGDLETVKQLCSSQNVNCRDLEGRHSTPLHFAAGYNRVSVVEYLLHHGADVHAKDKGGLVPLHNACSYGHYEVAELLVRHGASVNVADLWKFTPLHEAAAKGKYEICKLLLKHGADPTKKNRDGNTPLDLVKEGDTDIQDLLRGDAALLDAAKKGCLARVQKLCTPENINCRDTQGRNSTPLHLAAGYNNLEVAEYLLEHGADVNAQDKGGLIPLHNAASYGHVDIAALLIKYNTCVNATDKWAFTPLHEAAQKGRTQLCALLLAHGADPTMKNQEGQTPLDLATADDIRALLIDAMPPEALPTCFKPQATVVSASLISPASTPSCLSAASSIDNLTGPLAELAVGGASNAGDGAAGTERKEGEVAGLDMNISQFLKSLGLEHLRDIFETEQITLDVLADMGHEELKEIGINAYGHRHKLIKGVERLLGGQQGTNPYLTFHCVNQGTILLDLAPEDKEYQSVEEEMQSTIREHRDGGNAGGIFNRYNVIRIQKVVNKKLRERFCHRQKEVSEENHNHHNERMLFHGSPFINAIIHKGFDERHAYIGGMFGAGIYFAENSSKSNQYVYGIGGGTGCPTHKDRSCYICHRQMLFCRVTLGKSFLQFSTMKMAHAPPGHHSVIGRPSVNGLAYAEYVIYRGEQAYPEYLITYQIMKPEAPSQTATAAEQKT

[11] = target: T3, Poly [ADP-ribose] polymerase tankyrase-2; assay: Inhibition of TNKS2 (unknown origin)
[12] = test system: SW480; assay: Antitumor activity against human SW480 cells xenografted in mouse assessed as reduction in tumor size at 150 mg/kg, IP relative to control; format: functional; design: scale not given: the % may be the effect or the level left
[13] = test system: SW480; assay: Antitumor activity against human SW480 cells xenografted in mouse assessed as reduction in tumor size at 300 mg/kg, IP relative to control; format: functional; design: scale not given: the % may be the effect or the level left
[14] = Antitumor activity against human MNNG/HOS cells xenografted in mouse assessed as decrease in tumor growth rate at 5 mg/kg, IT administered every other day for 12 days relative to control; format: functional, HOS-TE85; design: scale not given: the % may be the effect or the level left; conditions: time 12 day
[15] = target: T5, Poly [ADP-ribose] polymerase tankyrase-1 (Homo sapiens) (UniProt O95271); assay: Inhibition of TNKS1 (unknown origin) at 1 uM relative to control
T5 sequence (whole entry): T4 sequence (O95271 whole entry)

[16] = target: T6, Poly [ADP-ribose] polymerase tankyrase-2 (Homo sapiens) (UniProt Q9H2K2); assay: Inhibition of TNKS2 (unknown origin) at 1 uM relative to control
T6 sequence (whole entry): T3 sequence (Q9H2K2 whole entry)

[17] = target: T1, Poly [ADP-ribose] polymerase 1; assay: Inhibition of PARP1 (unknown origin) at 1 uM relative to control
[18] = target: T2, Poly [ADP-ribose] polymerase 2; assay: Inhibition of PARP2 (unknown origin) at 1 uM relative to control

T1 sequence (P09874 whole entry): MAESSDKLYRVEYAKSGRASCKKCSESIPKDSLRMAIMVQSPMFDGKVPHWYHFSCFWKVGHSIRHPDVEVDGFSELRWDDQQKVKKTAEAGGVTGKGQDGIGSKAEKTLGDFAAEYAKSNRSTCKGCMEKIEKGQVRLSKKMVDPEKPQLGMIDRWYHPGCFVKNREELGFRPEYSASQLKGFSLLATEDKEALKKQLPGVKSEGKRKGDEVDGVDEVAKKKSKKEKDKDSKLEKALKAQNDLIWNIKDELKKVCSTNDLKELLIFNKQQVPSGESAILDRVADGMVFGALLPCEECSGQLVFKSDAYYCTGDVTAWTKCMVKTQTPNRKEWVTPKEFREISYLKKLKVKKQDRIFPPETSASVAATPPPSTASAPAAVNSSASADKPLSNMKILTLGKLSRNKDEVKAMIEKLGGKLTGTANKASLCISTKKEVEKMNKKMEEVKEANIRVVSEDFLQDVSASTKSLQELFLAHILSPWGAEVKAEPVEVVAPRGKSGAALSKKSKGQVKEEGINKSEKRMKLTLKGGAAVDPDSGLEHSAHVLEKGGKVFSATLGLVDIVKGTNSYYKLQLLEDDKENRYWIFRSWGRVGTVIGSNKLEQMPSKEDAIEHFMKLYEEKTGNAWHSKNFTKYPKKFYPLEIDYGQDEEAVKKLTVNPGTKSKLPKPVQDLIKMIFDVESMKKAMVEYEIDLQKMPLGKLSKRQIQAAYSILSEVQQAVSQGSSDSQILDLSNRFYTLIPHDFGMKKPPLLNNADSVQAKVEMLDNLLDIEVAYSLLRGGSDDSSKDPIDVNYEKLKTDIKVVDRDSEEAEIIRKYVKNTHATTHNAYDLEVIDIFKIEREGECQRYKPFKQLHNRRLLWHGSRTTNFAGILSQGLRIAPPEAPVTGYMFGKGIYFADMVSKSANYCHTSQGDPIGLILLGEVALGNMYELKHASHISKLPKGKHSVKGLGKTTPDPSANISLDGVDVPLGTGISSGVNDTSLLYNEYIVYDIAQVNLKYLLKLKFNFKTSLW
T2 sequence (Q9UGN5 whole entry, the tested form may be a part): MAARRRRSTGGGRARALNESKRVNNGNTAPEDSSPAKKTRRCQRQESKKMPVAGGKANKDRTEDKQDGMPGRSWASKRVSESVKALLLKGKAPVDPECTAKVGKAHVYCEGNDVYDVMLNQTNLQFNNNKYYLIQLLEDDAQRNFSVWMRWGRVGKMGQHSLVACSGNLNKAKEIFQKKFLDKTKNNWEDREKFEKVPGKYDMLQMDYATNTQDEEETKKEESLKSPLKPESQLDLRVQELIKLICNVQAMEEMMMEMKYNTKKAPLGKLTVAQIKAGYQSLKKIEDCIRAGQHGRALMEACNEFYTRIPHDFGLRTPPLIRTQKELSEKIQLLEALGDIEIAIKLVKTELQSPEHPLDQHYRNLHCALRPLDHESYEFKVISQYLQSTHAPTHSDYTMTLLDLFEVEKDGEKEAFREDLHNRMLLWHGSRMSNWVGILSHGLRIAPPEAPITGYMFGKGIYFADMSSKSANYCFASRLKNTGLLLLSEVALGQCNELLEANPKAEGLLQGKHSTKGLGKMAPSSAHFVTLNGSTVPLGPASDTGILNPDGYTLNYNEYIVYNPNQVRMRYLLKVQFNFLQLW

Work on `C[C@@H]1CN(c2cc(F)c3c(c2)N(C)C(=O)C32CCN(c3nc4c(c(=O)[nH]3)CCCN4C)CC2)C[C@H](C)O1` yielded a bioavailability [1] of 100%.
`Cc1cc(NCCc2ccc(O)cc2)c2nncn2n1` showed an IC50 [2] of over 10000 nM and an IC50 [3] of over 10000 nM.
With `CCc1ccc(OCC(=O)Nc2sc(C)c(C)c2C(N)=O)c(F)c1` the Ki [4] was 20500 nM.
Work on `COc1ccccc1N1CCN(c2nc3c(c(=O)[nH]2)CCCC3)CC1` yielded an IC50 [2] of over 100000 nM, a remaining at 0.5 h [5] of 0% and a solubility [6] of 10 µg/mL (≈ 29.4 µM).
`CC(=O)N[C@@H](CCCNC(=N)N)C(=O)N[C@@H](CCC(=O)O)C(=O)N[C@H]1CCn2cc(nn2)-c2cc(C(=O)O)cc(c2)-c2cn(nn2)CC[C@@H](C(=O)N[C@@H](CCC(=O)O)C(N)=O)NC(=O)CNC(=O)[C@H](CC(=O)O)NC(=O)CNC1=O` showed a Kd [7] of 440 nM.
For `CS(=O)(=O)c1ccc(-c2nnc(/C=C/c3nnc(-c4ccc(C#N)cc4)o3)n2-c2ccccc2Cl)nc1`, the Activity [8] was over 15% and the Activity [9] was over 15%.
Compound `O=C(Nc1cccc2c(=O)[nH]ccc12)[C@H]1CCCNC1` has an IC50 [10] of 9 nM, an IC50 [11] of 3 nM and an IC50 [2] of over 10000 nM.
`COc1ccc(-n2c(SCc3nc(-c4ccc(C)cc4)no3)nnc2-c2ccncc2)cc1` gave an Activity [12] of 33% and an Activity [13] of 35%.
`O=C(Nc1cccc2cccnc12)c1ccc(N2C(=O)[C@@H]3[C@H](C2=O)[C@@H]2C=C[C@H]3C2)cc1` showed an Activity [14] of 73%.
For `CC(=O)N[C@@H](CCCNC(=N)N)C(=O)N[C@@H](CCC(=O)O)C(=O)N[C@H]1CCn2cc(nn2)CCCc2cn(nn2)CC[C@@H](C(=O)N[C@@H](CCC(=O)O)C(N)=O)NC(=O)CNC(=O)[C@H](CC(=O)O)NC(=O)CNC1=O`, the Kd [7] was 600 nM.
`COc1ccc(-n2c(SCCCN3C(=O)c4cccc5cccc(c45)C3=O)nnc2-c2ccncc2)cc1` gave an IC50 [11] of 15 nM.
`COc1cc2ncnc(N3CCC(CN4Cc5ccccc5N(c5ccc(F)c(C#N)c5)C4=O)CC3)c2cc1OC` gave an inhibition [15] of 100%, an inhibition [16] of 100% and an inhibition [17] of 0%. For the same compound, the inhibition [18] was 0%.
For `COc1ccc(C2(CNC(=O)c3ccc(NC(=O)c4ccco4)cc3)CCOCC2)cc1`, the IC50 [11] was 1900 nM and the IC50 [2] was 1800 nM.
